Test results from patent publication EP4813992A1, “POLYARYL DERIVATIVE AND USE THEREOF” (Hangzhou HealZen Therapeutics Co., Ltd., priority 2023, dated 2025).

Columns and labels:
HPK1/GLK = assay: Selectivity of degrading HPK1/GLK in Jurkat cells (Western blot, 24 h); format: cell-based; details: HPK1/GLK Fold = DC50 (HPK1) / DC50 (GLK)
Method: • 1) Cell plating: Cells are resuscitated, Jurkat cell lines in good growth condition are selected, and cells in the logarithmic growth phase are collected and counted; cell suspensions are seeded into 12 or 24-well plates (20W/well) and incubated overnight at 37°C in a 5% CO2 incubator. • 2) Preparation of compounds to be tested: The compounds to be tested are serially diluted with DMSO according to the experimental requirements and added to the corresponding cell wells, to be incubated at 37°C in a 5% CO2 incubator for 24 h. • 3) Preparation of samples: After the reaction of the compound to be tested is completed, the cells are collected in 1.5 mL EP tubes, and centrifuged at 1500 rpm for 5 min; after the supernatant is discarded, the cells are washed once with PBS, and the BCA protein is quantified and the concentration is adjusted. The adjusted samples are added to 5*loading buffer, boiled at 100°C for 10 minutes, and then the samples are loaded after the temperature is returned to room temperature. • 4) Detection of samples: Electrophoresis is performed using 10% SDS-PAGE with a sample loading volume of 10 µL/well. After the membrane transfer is completed, the samples are blocked with 5% skim milk at room temperature for 1 h. After the residual blocking solution is washed away with TBST, HPK1 and GLK antibodies are added for incubation overnight at 4°C. Washing is performed 3 more times with TBST on a shaker, 5 minutes each time. After washing is completed, the secondary antibody is added for incubation at room temperature in a shaker for 1 hour; then, washing is performed 3 more times with TBST on a shaker, 5 minutes each time; finally, the membrane is soaked in TBST and then subjected to chemiluminescence development. • 5) Data Processing: After the PVDF membrane is developed, the data are exported and plotted using Imang J, and the gray values of the protein bands are analyzed using Image J software; the DC50 curve is fitted using Graphpad Prism 9 software to obtain the results of the selectivity of the compound in degrading HPK1/GLK: HPK1/GLK Fold = DC50 (HPK1) / DC50 (GLK) . Table 3 Selectivity of the compounds of the invention in degrading HPK1/GLK

HPK1 kinase [1] = target: T1, HPK1 kinase (Homo sapiens, UniProt Q92918); assay: Lantha screen assay, inhibitory effect on HPK1 kinase; format: biochemical; details: initial compound concentration 1 µM
T1 sequence (Q92918 whole entry): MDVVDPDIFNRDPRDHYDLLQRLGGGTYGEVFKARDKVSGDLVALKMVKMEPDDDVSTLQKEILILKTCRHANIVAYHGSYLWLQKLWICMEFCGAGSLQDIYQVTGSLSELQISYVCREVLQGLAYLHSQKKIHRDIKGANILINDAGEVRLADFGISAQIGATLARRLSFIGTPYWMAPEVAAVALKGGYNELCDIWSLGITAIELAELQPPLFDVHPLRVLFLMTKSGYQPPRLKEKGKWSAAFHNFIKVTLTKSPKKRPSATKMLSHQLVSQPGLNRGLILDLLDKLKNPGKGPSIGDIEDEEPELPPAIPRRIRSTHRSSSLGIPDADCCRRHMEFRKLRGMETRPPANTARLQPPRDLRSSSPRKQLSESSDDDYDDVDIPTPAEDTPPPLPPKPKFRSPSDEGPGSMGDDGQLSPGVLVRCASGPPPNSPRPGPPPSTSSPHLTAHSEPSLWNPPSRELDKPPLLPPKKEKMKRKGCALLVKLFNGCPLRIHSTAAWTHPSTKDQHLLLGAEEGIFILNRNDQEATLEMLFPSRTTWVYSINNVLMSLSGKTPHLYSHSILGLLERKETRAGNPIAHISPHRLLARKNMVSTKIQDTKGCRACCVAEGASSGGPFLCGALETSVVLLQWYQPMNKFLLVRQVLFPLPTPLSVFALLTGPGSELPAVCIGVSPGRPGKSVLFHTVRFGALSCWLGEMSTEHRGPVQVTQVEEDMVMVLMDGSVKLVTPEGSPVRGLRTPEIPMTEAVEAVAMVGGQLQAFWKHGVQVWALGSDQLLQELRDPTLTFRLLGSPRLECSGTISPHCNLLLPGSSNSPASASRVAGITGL
Summary of the method: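 Kinase pre-incubated with compound for 10 min at room temperature in 50 mM HEPES pH 7.5, 10 mM MgCl2, 4 mM DTT, 0.01% Tween-20, 0.01% BSA. Fluorescein-PKC substrate plus ATP then added for 90 min, stopped with antibody/EDTA for 60 min. Top concentration 1 µM; IC50 from four-parameter fit of inhibition vs log concentration.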

HPK1 kinase [2] = target: T1, HPK1 kinase; assay: Activity of degrading HPK1 in Jurkat cells (Western blot, 24 h); format: cell-based; parameters: endogenous in cells; host or cells: Jurkat; details: HPK1 protein degradation
Method: The adjusted samples are added to 5*loading buffer, boiled at 100°C for 10 minutes, and then the samples are loaded after the temperature is returned to room temperature. • 4) Detection of samples: Electrophoresis is performed using 10% SDS-PAGE with a sample loading volume of 8 µL/well. After the membrane transfer is completed, the samples are blocked with 5% BSA at room temperature for 1 h. After the residual blocking solution is washed away with TBST, HPK1 and GAPDH antibodies are added for incubation overnight at 4°C. Washing is performed 3 more times with TBST on a shaker, 10 minutes each time. After washing is completed, the secondary antibody is added for incubation at room temperature for 1 hour; then, washing is performed 3 more times with TBST on a shaker, 10 minutes each time; finally, ECL exposure solution is used to develop and image the bands to detect changes in HPK1 protein.

[3] = Pharmacokinetic properties in SD rats after gavage; format: in vivo; details: rat, po, 10 mg/kg, plasma
Method: The test compound is administered to SD rats by gavage at a dose of 10 mg/kg. Blood samples are collected at 0 h (before administration) and at 0.083, 0.25, 1, 2, 4, 6, 8, and 24 h after oral gavage administration. The samples are placed in anticoagulant tubes containing heparin sodium, and the mixture is thoroughly vortexed and centrifuged at 6000 rpm for 3 minutes. Plasma concentrations are determined by LC-MS/MS, and relevant pharmacokinetic parameters are calculated using Phoenix WinNonlin 8.2.0 pharmacokinetic software. Table 4 Pharmacokinetic properties of the compounds of the invention

Structure (SMILES)	HPK1/GLK Fold (HPK1/GLK)	IC50 (HPK1 kinase [1])	DC50 (HPK1 kinase [2]; class symbols)	AUC [3]	DC50 (HPK1 kinase [2]; numeric values)
Cc1cc(N2CC(C(C)N3CC=C(c4c(C)cc(-c5cnc6[nH]cc(-c7ccc(C(=O)N(C)C)cc7)c6n5)cc4C)CC3)C2)ccc1N1CCC(=O)NC1=O (stereo not drawn) [compound 042]	++++ (1000≤Fold)	< 10 nM			
Cc1cc(-c2cnc3[nH]cc(-n4cc(F)cn4)c3n2)cc(C)c1C1=CCN(CC2CN(c3ccc(N4CCC(=O)NC4=O)c(F)c3)C2)CC1 [compound 163]	++++ (1000≤Fold)	< 10 nM	< 10 nM		
Cc1cc(-c2cnc3[nH]cc(-c4cnc5cc(F)ccn45)c3n2)cc(C)c1C1=CCN(CC2CN(c3ccc(N4CCC(=O)NC4=O)c(F)c3)C2)CC1 [compound 167]	++++ (1000≤Fold)	< 10 nM	< 10 nM		
Cc1cc(N2CCC(CN3CC=C(c4c(C)cc(-c5cnc6[nH]cc(-c7ccc(C(=O)N(C)C)cc7)c6n5)cc4C)CC3)CC2)ccc1N1CCC(=O)NC1=O [compound 113]	++++ (1000≤Fold)	< 10 nM	< 10 nM		
Cc1cc(N2CC(CN3CC=C(c4c(C)cc(-c5cnc6[nH]cc(-c7ccc8c(c7)CCN(C)C8=O)c6c5)cc4C)CC3)C2)ccc1N1CCC(=O)NC1=O [compound 099]	++++ (1000≤Fold)	< 10 nM	< 10 nM		
Cc1cc(-c2cnc3[nH]cc(-c4ccc(C(=O)N5CC6(COC6)C5)cc4)c3n2)cc(C)c1C1=CCN(CC2CN(c3ccc(N4CCC(=O)NC4=O)c(F)c3)C2)CC1 [compound 105]	++++ (1000≤Fold)	< 10 nM	< 10 nM		
COCCCN(C)C(=O)c1ccc(-c2c[nH]c3ncc(-c4cc(C)c(C5=CCN(CC6CN(c7ccc(N8CCC(=O)NC8=O)c(C)c7)C6)CC5)c(C)c4)cc23)cc1 [compound 109]	++++ (1000≤Fold)	< 10 nM	< 10 nM		
Cc1cc(-c2cnc3[nH]cc(-c4ccc(C(=O)N(C)C)cc4)c3c2)cc(C)c1C1=CCN(CC2CN(C(=O)c3ccc(Cl)c(N4CCC(=O)NC4=O)c3)C2)CC1 [compound 130]	++++ (1000≤Fold)	< 10 nM			
Cc1cc(-c2cnc3[nH]cc(-c4ccc(C(=O)N(C)C)cc4)c3n2)cc(C)c1C1=CCN(CC2CCN(c3ccc(NC4CCC(=O)NC4=O)cc3F)CC2)CC1 (stereo not drawn) [compound 018]	++++ (1000≤Fold)	< 10 nM	< 10 nM		
Cc1cc(N2CC(CN3CC=C(c4ccc(-c5cnc6[nH]cc(-c7ccc(C(=O)N(C)C)cc7)c6c5)cc4C(C)C)CC3)C2)ccc1N1CCC(=O)NC1=O [compound 129]	++++ (1000≤Fold)	< 10 nM	< 10 nM		
Cc1cc(-c2cnc3[nH]cc(-c4ccc(C(=O)N(C)C)cc4)c3n2)cc(C)c1C1=CCN(C2CN(c3ccc(C(=O)NC4CCC(=O)NC4=O)nc3)C2)CC1 (stereo not drawn) [compound 012]	++++ (1000≤Fold)	< 10 nM			
Cc1cc(-c2cnc3[nH]cc(-c4ccc(C(=O)N(C)C)cc4)c3n2)cc(C)c1C1=CCN(CC2CN(c3ccc(OC4CCC(=O)NC4=O)cn3)C2)CC1 (stereo not drawn) [compound 086]	++++ (1000≤Fold)	< 10 nM		8500 ng·h/mL	
Cc1cc(-c2c[nH]c3ncc(-c4cc(C)c(C5=CCN(CC6CN(c7ccc(N8CCC(=O)NC8=O)c(F)c7)C6)CC5)c(C)c4)nc23)ccc1C(=O)N(C)C [compound 146]	++++ (1000≤Fold)	< 10 nM			
Cc1cc(N2CC(CN3CC=C(c4c(C)cc(-c5cnc6[nH]cc(-c7cnn(C8CCN(CC(F)F)CC8)c7)c6c5)cc4C)CC3)C2)ccc1N1CCC(=O)NC1=O [compound 110]		< 10 nM		4070 ng·h/mL	12.4 nM
O=C1CCN(c2cc(C(=O)N3CCC(CC4CCN(c5ccc(-c6cnc7[nH]cc(-c8cnn(CC(F)(F)F)c8)c7n6)cn5)CC4)CC3)ccc2Cl)C(=O)N1 [Compound a, reference compound]				3850 ng·h/mL	
Cc1cc(-c2cnc3[nH]cc(-c4ccc(C(=O)N(C)CC(C)O)cc4)c3n2)cc(C)c1C1=CCN(CC2CN(c3ccc(N4CCC(=O)NC4=O)c(F)c3)C2)CC1 (stereo not drawn) [compound 107]	++++ (1000≤Fold)	< 10 nM			
Cc1cc(-c2cnc3[nH]cc(-n4cc(CC(F)(F)F)cn4)c3n2)cc(C)c1C1=CCN(CC2CN(c3ccc(N4CCC(=O)NC4=O)c(F)c3)C2)CC1 [compound 162]	++++ (1000≤Fold)	< 10 nM	< 10 nM		
Cc1cc(-c2cnc3[nH]cc(-n4cc(C5CC5)cn4)c3n2)cc(C)c1C1=CCN(CC2CN(c3ccc(N4CCC(=O)NC4=O)c(F)c3)C2)CC1 [compound 160]	++++ (1000≤Fold)	< 10 nM	< 10 nM		
Cc1cc(-c2cnc3[nH]cc(-c4ccc(C(=O)N(C)C)cc4)c3n2)cc(C)c1C1=CCN(CC2CN(c3ccc(C(=O)NC4CCC(=O)NC4=O)cn3)C2)CC1 (stereo not drawn) [compound 089]	++++ (1000≤Fold)	< 10 nM			
Cc1cc(-c2cnc3[nH]cc(-c4ccc(C(=O)N(C)C)cc4)c3n2)cc(C)c1C1=CCN(CC2CN(c3ccc(C(=O)NC4CCC(=O)NC4=O)cc3)C2)CC1 (stereo not drawn) [compound 081]	++++ (1000≤Fold)	< 10 nM	< 10 nM		
COc1ccc(C(=O)N2CC(N3CC=C(c4c(C)cc(-c5cnc6[nH]cc(-c7ccc(C(=O)N(C)C)cc7)c6n5)cc4C)CC3)C2)cc1N1CCC(=O)NC1=O [compound 061]	++++ (1000≤Fold)	< 10 nM			
Cc1cc(-c2cnc3[nH]cc(-c4ccc(C(=O)N(C)C)cc4)c3n2)cc(C)c1C1=CCN(CC2CN(c3cc(F)c(N4CCC(=O)NC4=O)c(F)c3)C2)CC1 [compound 079]	++++ (1000≤Fold)	< 10 nM			
Cc1cc(-c2cnc3[nH]cc(-c4csc(CO)c4)c3n2)cc(C)c1C1=CCN(CC2CN(c3ccc(N4CCC(=O)NC4=O)c(F)c3)C2)CC1 [compound 151]		< 10 nM	< 10 nM		
Cc1cc(-c2cnc3[nH]cc(-c4cnc(C(F)(F)F)s4)c3n2)cc(C)c1C1=CCN(CC2CN(c3ccc(N4CCC(=O)NC4=O)c(F)c3)C2)CC1 [compound 165]	++++ (1000≤Fold)	< 10 nM	< 10 nM		
Cc1cc(-c2cnc3[nH]cc(-c4cc(Cl)sc4Cl)c3n2)cc(C)c1C1=CCN(CC2CN(c3ccc(N4CCC(=O)NC4=O)c(F)c3)C2)CC1 [compound 149]		< 10 nM	< 10 nM		
